Measured values taken from US20160220630A1, “AGONISTS OF GUANYLATE CYCLASE USEFUL FOR THE TREATMENT OF OPIOID INDUCED DYSFUNCTIONS” (priority 2013, published 2016).
“Also recorded” adds a separate entry of the source. Positions of bridges follow the written chain, without caps; N, C: chain ends. Non-standard residues stand in square brackets, D forms with d. Residues, ends and D or L forms follow the SMILES beside them.

How the values were obtained:
T84 cells = test: Short circuit current (Isc) in Ussing chamber across T84 cells monolayer
rat jejunum = test: Short circuit current (Isc) in Ussing chamber across rat jejunum tissue; settings: for inhibition of SP-333-stimulated Isc: inhibitor pretreatment 5 min, 1 μM SP-333
[1] = tested on: female Sprague-Dawley CD rats; test: Methadone-induced constipation (fecal pellet output); assay type: in vivo, rat
Description: Effect of SP-333 on methadone-induced constipation in rats: To identify the methadone dose that induces constipation in rats, female Sprague-Dawley CD rats 7 to 8 weeks of age (n=6/group) were administered 0 (vehicle), 2.5, 5, and 7.5 mg/kg of methadone (1.5 ml/kg dose volume) by IP injection once a day for 5 days. Fecal pellets were collected at 4 h intervals during the light cycle and average number of pellets was recorded for each group during the course of the study following daily dose administrations of methadone.
To evaluate the ability of SP-333 to relieve methadone-induced constipation, female Sprague-Dawley CD rats 7 to 8 weeks of age (n=7/group) were administered 5 mg/kg of methadone (or vehicle) each day for 7 days via IP injection to induce constipation. Ten minutes following the IP dose each day, an oral gavage of 2.5, and 5 mg/kg of SP-333 or vehicle (buffer) was administered. Fecal pellets were collected at 4 h intervals during the light cycle and average number of pellets recorded for each group during the course of the study following daily administration of vehicle, methadone or combination of methadone and SP-333.

[2] = tested on: female Sprague-Dawley rats; test: Reversal of morphine-induced delayed GI transit by oral SP-333; assay type: in vivo, rat
Description: (§1) Effect of SP-333 on opioid-induced GI transit delay in rats: The ability of opioids to delay GI transit in rats was tested by either administering 0 (vehicle) 0.25, 1 and 2.5 mg/kg of morphine or 0 (vehicle), 0.25, 2.5 and 5 mg/kg of methadone (1.5 ml/kg dose volume) by IP injection. Water served as vehicle control. Ten minutes later, a 2 mL charcoal meal consisting of 10% activated charcoal (Sigma-Aldrich, St. Louis, Mo.) and 10% gum Arabic (Sigma-Aldrich, St. Louis, Mo.) in water was administered via oral gavage. Rats were euthanized 10 min after the charcoal meal via IP injection of 150 mg/kg Beuthanasia-D solution (sodium pentobarbital, 390 mg/mL). The small intestine was removed and the total length from the pyloric sphincter to the ileocecal junction was recorded, as well as the distance travelled by the leading edge of the charcoal. Intestinal transit was determined by calculating the ratio (expressed as a percentage) of the distance between the pyloric sphincter and the leading edge of the charcoal to the distance between the pyloric sphincter and the ileocecal junction.
To evaluate the ability of SP-333 to reverse morphine induced delayed GI transit, animals were administered 2.5 mg/kg of morphine by IP injection followed immediately by oral gavage of 0 (vehicle), 0.5, 2.5, 5 and 50 mg/kg of SP-333 (1.5 ml/kg dose volume). Water served as vehicle control. Charcoal meal was administered ten minutes later and animals were euthanized ten minutes after the charcoal meal and intestinal transit was calculated as described above.

[3] = tested on: female Sprague-Dawley rats; test: Reversal of methadone-induced delayed GI transit by oral SP-333; assay type: in vivo, rat
Description: as §1
To evaluate the ability of SP-333 to reverse methadone induced delayed GI transit, animals were administered 2.5 mg/kg of methadone by IP injection. Ten minutes later, an oral gavage of 0 (vehicle), 0.1, 0.5, 2.5, 5 and 50 mg/kg of SP-333 (1.5 ml/kg dose volume) was administered followed immediately by a 2 mL oral gavage of the charcoal meal. Ten minutes after the charcoal meal, animals were euthanized and intestinal transit was calculated as described above.

[4] = tested on: female Sprague-Dawley CD rats; test: GI transit delay induced by repeated methadone administration; assay type: in vivo, rat; settings: for GI transit after repeated methadone dosing (words): repeated daily IP methadone (5 then 2.5 mg/kg)
Description: The ability of SP-333 to alleviate GI transit delay induced by repeated methadone administration was also evaluated in the similar manner. Female Sprague-Dawley CD rats 7 to 8 weeks of age (n=7/group) received via IP injection 16 doses of methadone (once daily; 7 doses @ 5 mg/kg and 9 doses @ 2.5 mg/kg). Ten minutes following each methadone dose, each group received an oral gavage of vehicle, 2.5, and 5 mg/kg of SP-333. At the end of the dosing regimen, animals were fasted overnight and GI transit was evaluated as described above.

[5] = tested on: female Sprague-Dawley rats; test: GI transit (charcoal meal) after single oral SP-333 in opioid naïve rats; assay type: in vivo, rat
Description: FIGS. 7A-B is a series of graphs showing that oral treatment with SP-333 increases GI transit in rats. […] Panel A is a bar graph showing that SP-333 increases GI transit by 5.6%, 13%, and 23% at 0.05, 0.5, and 5 mg/kg, respectively in opioid naïve animals. Panel B is a distribution graph showing the data of each individual animal.
as §1

[6] = tested on: female Sprague-Dawley rats; test: Opioid-induced GI transit delay after single IP opioid dose (charcoal meal); assay type: in vivo, rat
Description: Animals: All study procedures were conducted under a study outline approved by the Institutional Animal Care and Use Committee of MB Research Labs (Spinnerstown, Pa.) or Lampire Biological Laboratories (Pipersville, Pa.). Seven to eight week old female Sprague-Dawley rats [Crl:CD(SD)], weighing between ˜180-210 grams, were obtained from Charles River Laboratories and allowed to acclimate for a week. Animals were maintained on a 12 hour light-dark cycle. For intestinal tissue collection and evaluation of GI transit, rats were fasted for at least 18 hours before the experiment, with free access to water.
as §1

[7] = 5 μM methadone apical 5 min, then 1 μM SP-333
[8] = 5 μM morphine apical 5 min, then 1 μM SP-333

## O=C(O)c1ccc(/C=C2\SC(=S)N(c3cccc(C(F)(F)F)c3)C2=O)cc1 [CFTRinh172]
T84 cells; 10 μM CFTRinh172, compared with 1 μM SP-333 alone
  suppression in SP-333-stimulated Isc: 80%
Rat jejunum
  inhibition of SP-333-stimulated Isc: less compared to that detected in T84 cells

## [Cl][Cd][Cl] [CdCl2]
T84 cells; CdCl2 300 μM or mPKI 3.2 μM, 1 μM SP-333
  decrease in SP-333-stimulated Isc: No appreciable decrease; also recorded: minimal effect
Rat jejunum
  inhibition of SP-333-stimulated Isc: minimal effect

## COC(=O)[C@@]1(OC)C[C@H]2O[C@]1(C)n1c3ccccc3c3c4c(c5c6ccccc6n2c5c31)C(=O)N(C)C4 [PKG-II inhibitor]
T84 cells; PKG-II inhibitor 4 μM, 1 μM SP-333
  suppression of relative SP-333-stimulated Isc: approximately 35%

## CC(C)C[C@@H]1NC(=O)[C@H](CCC(=O)O)NC(=O)[C@@H](NC(=O)[C@H](CCC(=O)O)NC(=O)[C@H](CC(=O)O)NC(=O)[C@H](N)CC(N)=O)CSSC[C@@H]2NC(=O)[C@H](C)NC(=O)[C@H](C(C)C)NC(=O)[C@H](CC(N)=O)NC(=O)[C@H](C(C)C)NC(=O)[C@H](CSSC[C@@H](C(=O)N[C@H](CC(C)C)C(=O)O)NC(=O)CNC(=O)[C@H]([C@@H](C)O)NC2=O)NC1=O [SP-333, dAsn^1-Asp^2-Glu^3-Cys^4-Glu^5-Leu^6-Cys^7-Val^8-Asn^9-Val^10-Ala^11-Cys^12-Thr^13-Gly^14-Cys^15-dLeu^16] (H-[dN]DECELCVNVACTGC[dL]-OH; disulfide 4-12, 7-15)
[1]; methadone 5 mg/kg IP + SP-333 2.5 mg/kg oral, once daily 7 days
  fecal pellet count compared to the methadone dosed group without SP-333: threefold increase; also recorded: significantly relieved methadone-induced constipation
[1]; methadone 5 mg/kg IP + SP-333 2.5 and 5 mg/kg oral, once daily 7 days
  fecal output / average number of pellets: partially restored fecal output; also recorded: higher compared to the methadone dosed group
[2]; morphine 2.5 mg/kg IP + SP-333 0.5 mg/kg oral
  GI transit in morphine-treated rats: 27%
[2]; morphine 2.5 mg/kg IP + SP-333 2.5 mg/kg oral
  GI transit in morphine-treated rats: 37%
[2]; morphine 2.5 mg/kg IP + SP-333 5 mg/kg oral
  GI transit in morphine-treated rats: 46%
[2]; morphine 2.5 mg/kg IP + SP-333 50 mg/kg oral
  GI transit in morphine-treated rats: 48%
[2]; morphine 2.5 mg/kg IP, SP-333 oral
  SP-333 dose sufficient to relieve the effect of morphine on GI transit: 5 mg/kg
[2]; orally administered SP-333
  delay in GI transit caused by morphine: completely restored the delay in GI transit
[3]; methadone 2.5 mg/kg IP + SP-333 0.5 mg/kg oral
  GI transit in methadone-treated rats: 40%
[3]; methadone 2.5 mg/kg IP + SP-333 2.5 mg/kg oral
  GI transit in methadone-treated rats: 39%
[3]; methadone 2.5 mg/kg IP + SP-333 5 mg/kg oral
  GI transit in methadone-treated rats: 44%
[3]; methadone 2.5 mg/kg IP + SP-333 50 mg/kg oral
  GI transit in methadone-treated rats: 52%
[3]; methadone 2.5 mg/kg IP, SP-333 oral
  SP-333 dose sufficient to relieve the effect of methadone on GI transit: 5 mg/kg
[3]; orally administered SP-333
  delay in GI transit caused by methadone: completely restored the delay in GI transit
T84 cells; SP-333 0.01-10 μM apical
  increase in Isc (chloride currents): concentration-dependent increase in Isc approaching saturation at 10 μM
Rat jejunum; SP-333 0.01-10 μM apical
  increase in Isc (chloride currents): concentration-dependent increase in Isc approaching saturation at 10 μM
[4]; repeated daily IP methadone (5 then 2.5 mg/kg) + SP-333 2.5 and 5 mg/kg oral
  GI transit delay after repeated methadone dosing: normalized GI transit; also recorded: relieved the GI-transit delay; also recorded: statistically significant improvement in GI transit delay
[5]; SP-333 0.05 mg/kg single oral gavage
  increase in GI (small intestinal) transit compared to vehicle controls: 5.6%
[5]; SP-333 0.5 mg/kg single oral gavage
  increase in GI (small intestinal) transit compared to vehicle controls: 13%
[5]; SP-333 5 mg/kg single oral gavage
  increase in GI (small intestinal) transit compared to vehicle controls: 23%

## CCC(=O)C(CC(C)N(C)C)(c1ccccc1)c1ccccc1 (stereo not shown) [methadone]
[1]; daily IP methadone 2.5, 5 and 7.5 mg/kg
  effect of methadone on fecal output: drastically reduced daily fecal output; also recorded: statistically significant reduction in fecal output
T84 cells; [7]
  effect of methadone pre-treatment on SP-333-stimulated Isc: no effect; also recorded: not adversely affected
Rat jejunum; [7]
  effect of methadone pre-treatment on SP-333-stimulated Isc: no effect; also recorded: not adversely affected
[4]
  GI transit after repeated methadone dosing (words): significant delay in GI transit
[4]; listed as Methadone
  GI transit after repeated methadone dosing (words): significant reduction in GI transit
[6]; IP
  methadone dose sufficient to significantly reduce GI transit: 2.5 mg/kg
[6]; methadone 2.5 mg/kg IP
  GI transit delay vs corresponding vehicle controls: 49%
[6]; methadone 0.25, 2.5 and 5 mg/kg IP
  effect of methadone on GI transit: significantly reduced GI transit; also recorded: statistically significant reduction in GI transit

## CN1CC[C@]23c4c5ccc(O)c4O[C@H]2[C@@H](O)C=C[C@H]3[C@H]1C5 [morphine]
T84 cells; [8]
  effect of morphine pre-treatment on SP-333-stimulated Isc: negligible effect; also recorded: not adversely affected
Rat jejunum; [8]
  effect of morphine pre-treatment on SP-333-stimulated Isc: negligible effect; also recorded: not adversely affected
[6]; morphine 2.5 mg/kg IP single dose
  GI transit slowed by, compared to vehicle controls: 56%
[6]; morphine IP 0.25, 1.0 and 2.5 mg/kg
  effect of morphine on GI transit: significantly reduced GI transit
